Entries after “also recorded” stand apart in the source; their conditions may differ.

What all share (assay type): cell-based
One data set concerns NF-κB. In words: Measurement of NF-κB activation using THP1-Blue NF-κB cells (SEAP reporter, LPS as primary stimulus). As to conditions: for activity at 5 µM: compound 5 μM + LPS, 20 hour incubation, two point normalized: compound 1 + LPS = 200%, LPS = 100%, mean. The gist of the method:
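THP1-Blue NF-κB cells (10^5/well, RPMI + 10% FBS) were co-treated with LPS 10 μg/mL and compound 5 μM (final, […]) for 20 h. Supernatant SEAP was read by QuantiBlue colorimetry at 630 nm. Two-point normalization set LPS alone to 100% and compound 1+LPS to 200%.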

A further data set relates to THP-1 cells. Nature of the data set: Cell viability assay (MTT). As to conditions: for MTT % Viability: compound 5 μM, 18 hours incubation, normalized to DMSO as 100%, mean. The essentials:
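Cells at 10^5/well in RPMI with 10% FBS were exposed to compound at 5 μM final (0.05% DMSO) for 18 h. MTT (0.5 mg/mL) then added for 4-6 h, cells lysed overnight in SDS/HCl, absorbance read at 570 nm against 650 nm reference.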

In a further data set the test system is ISRE. Nature of the data set: Measurement of ISRE activity in ISRE-bla THP-1 cells (FRET, IFN-α as primary stimulus). As to conditions: for activity at 5 µM: Homo sapiens, THP-1, compound 5 μM + IFN-α 100 U/mL, 16 hours, two point normalized: compound 1 + IFN-α = 200%, IFN-α = 100%, mean, read-out: ISRE % Activation. The essentials: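 Cells at 5×10^4/well in RPMI with 10% dialyzed FBS, treated with compound at 5 μM (0.05% DMSO) plus IFN-α at 100 U/mL (final) for 16 h. CCF4-AM substrate added for 3 h at room temperature. Background-subtracted 465/535 nm emission ratio, 2-point normalized: IFN-α alone 100%, compound 1+IFN-α 200%.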

A further data set has as its system NF-κB and ISRE. In words: NF-κB and ISRE reporter assays (primary screens), statements in words for both assays. As to conditions: with LPS or IFN-α as primary stimulus; compared to compound 1. Here is the method: THP1-Blue™ NF-κB cells were plated in 96-well plates at 10^5 cells/well in 100 μl RPMI supplemented with 10% fetal bovine serum (FBS, Omega Scientific, Inc., Tarzana, Calif.), 100 U/mL penicillin, 100 μg/ml streptomycin (Thermo Fisher Scientific) and Normocin (Invivogen). LPS was prepared in assay medium at a concentration of 20 μg/mL. Tested compounds were dissolved in DMSO at 1 mM as a stock solution and were further diluted in the LPS solution to a final concentration of 10 μM. 100 μL of this solution was then transferred to the plated cells to obtain a final concentration of LPS at 10 μg/mL and compound at 5 μM ([…]). The culture supernatants were harvested after a 20 hour incubation period, SEAP activity in the culture supernatants was determined by a colorimetric assay using QuantiBlue (Invivogen). Plate absorbance was read at 630 nm using a Tecan Infinite M200 plate reader (Männedorf, Switzerland). The SEAP concentration was directly proportional to NF-κB activity, which was 2-point normalized to yield activity of compound 1+LPS as 200% and activity for LPS as 100%.
ISRE-bla THP-1 cells were plated in 96-well plates at 5×10^4 cells/well in 50 μl RPMI supplemented with 10% dialyzed FBS (Atlanta Biologicals, Inc., GA), 0.1 mM nonessential amino acids, 1 mM sodium pyruvate, 100 U/mL penicillin and 100 μg/ml streptomycin. Type I IFN-α (R&D Systems, #11200-2) solution was prepared in assay medium at a concentration of 200 U/mL Tested compounds were dissolved in DMSO at 1 mM and were further diluted in the IFN-α solution to a final concentration of 10 μM. 50 μL of this solution was then transferred to the plated cells to obtain a final concentration of IFN-α at 100 U/mL and compound at 5 μM ([…]), The cells were incubated for 16 hours, after which 20 μL of 6×LiveBLAzer™ FRET B/G Substrate (CCF4-AM) mixture (prepared according to the manufacturer's instructions) was added to each well, Plates were incubated at room temperature in the dark for 3 hours. Fluorescence was measured on a Tecan Infinite M200 plate reader at an excitation wavelength of 405 nm, and emission wavelengths of 465 nm and 535 nm. Background values (cell free wells at the same fluorescence wavelength) were subtracted from the raw fluorescence intensity values and the emission ratios were calculated as the ratio of background subtracted fluorescence intensities at 465 nm to background subtracted fluorescence intensities at 535 nm. The ISRE activity values for these compounds were 2-point normalized to yield activity of compound 1+IFN-α as 200% and activity for IFN-α as 100%.
Measurement of NF-κB Activation Using THP1-Blue NF-κB Cells. THP1-Blue NF-κB cells were plated in 96-well plates at 10^5 cells/well in 100 μL of RPMI supplemented with 10% fetal bovine serum (FBS, Omega Scientific, Inc., Tarzana, Calif.), 100 U/mL penicillin, 100 μg/mL streptomycin (Thermo Fisher Scientific), and Normocin (Invivogen). LPS was prepared in assay medium at a concentration of 20 μg/mL. Tested compounds were dissolved in DMSO at 1 mM as a stock solution and were further diluted in the LPS solution to a final concentration of 10 μM. 100 μL of this solution was then transferred to the plated cells to obtain a final concentration of LPS at 10 μg/mL and compound at 5 μM ([…]). The culture supernatants were harvested after a 20 hours incubation period. SEAP activity in the culture supernatants was determined by a colorimetric assay using QuantiBlue (Invivogen). Plate absorbance was read at 630 nm using a Tecan Infinite M200 plate reader (Mannedorf, Switzerland). The SEAP concentration was directly proportional to NF-κB activity, which was two-point normalized to yield activity of compound 1+LPS as 200% and activity for LPS as 100%.
Measurement of ISRE Activity in ISRE-bla THP-1 Cells. […]
On the technique in general: Reporter assays use an easily measured gene product as a stand-in for the process of interest.

In the case of `COc1cc(NS(=O)(=O)c2ccc(C(N)=O)cc2)c(OC)cc1Cl` [Compound 27, 4-(N-(4-chloro-2,5-dimethoxyphenyl)sulfamoyl)benzamide], the activity at 5 µM in the data set with NF-κB was 103%; in the data set with ISRE, 94%. Also, the “MTT % Viability” value in the data set on THP-1 cells is given as 91.0%. Further, in the data set with NF-κB and ISRE, the “activity in NF-κB and ISRE assays (in words)” value is “lost activity”.
For `CCOC(=O)c1ccc(S(=O)(=O)Nc2cc(OC)c(Cl)cc2OC)cc1` [Compound 29, Ethyl 4-(N-(4-chloro-2,5-dimethoxyphenyl)sulfamoyl)benzoate], in that order: 189%, 169%, 70.8% and “retained partial activity”.
For `CNC(=O)c1ccc(S(=O)(=O)Nc2cc(OC)c(Cl)cc2OC)cc1` [Compound 30, 4-(N-(4-chloro-2,5-dimethoxyphenyl)sulfamoyl)-N-methylbenzamide], in that order: 103%, 105%, 77.0% and “completely inactive”.
As to `CCOc1ccc(S(=O)(=O)N(c2cc(OC)c(Cl)cc2OC)C(C)C)cc1` [Compound 40, N-(4-chloro-2,5-dimethoxyphenyl)-4-ethoxy-N-isopropylbenzenesulfonamide], the activity at 5 µM with NF-κB amounted to 76%; with ISRE it was 169%. In addition, the “NF-κB activity (in words)” value with NF-κB (with LPS) is recorded as “eliminated the NF-κB activity; also recorded: loss of NF-κB activity”. In the data set with THP-1 cells, the “MTT % Viability” value was 103.2%. Moreover, in the data set with ISRE (with IFN-α), the “ISRE activity (in words)” value is “retaining ISRE activity”. Further, the “activity in NF-κB and ISRE assays (in words)” value in the data set with NF-κB and ISRE is “inactive”.
With `CCOc1ccc(S(=O)(=O)N(CC(C)C)c2cc(OC)c(Cl)cc2OC)cc1` [Compound 41, N-(4-chloro-2,5-dimethoxyphenyl)-4-ethoxy-N-isobutylbenzenesulfonamide], the activity at 5 µM with NF-κB worked out at 175%; with ISRE, 193%. Besides, the “MTT % Viability” value in the data set on THP-1 cells is listed as 76.7%. Besides, the “activity in NF-κB and ISRE assays (in words)” value with NF-κB and ISRE was “regained the activity in both the NF-κB and ISRE assays”.
`C#CCOCCOCCOCCN(c1cc(OC)c(Cl)cc1OC)S(=O)(=O)c1ccc(OCC)cc1` [Compound 45, N-(4-chloro-2,5-dimethoxyphenyl)-4-ethoxy-N-(2-(2-(2-(prop-2-yn-1-yloxy)ethoxy)ethoxy)ethyl)benzenesulfonamide]: the activity at 5 µM in the data set with NF-κB came to 107%; in the data set on ISRE it was 130%. Besides, the “MTT % Viability” value with THP-1 cells is 73.7%. Also, the “activity in NF-κB and ISRE assays (in words)” value with NF-κB and ISRE is “too long to retain activity”.
For `CCOc1ccc(S(=O)(=O)N(Cc2ccccc2)c2cc(OC)c(Cl)cc2OC)cc1` [Compound 46, N-benzyl-N-(4-chloro-2,5-dimethoxyphenyl)-4-ethoxybenzenesulfonamide], in that order: 181%, 159%, 71.7% and “potent analogs”.
Regarding `CCOc1ccc(S(=O)(=O)N(CCc2ccccc2)c2cc(OC)c(Cl)cc2OC)cc1` [Compound 47, N-(4-chloro-2,5-dimethoxyphenyl)-4-ethoxy-N-phenethylbenzenesulfonamide], the activity at 5 µM in the data set on NF-κB was determined as 131%; with ISRE, 141%. Besides, the “toxicity in MTT assays (in words)” value with THP-1 cells (5 μM) is recorded as “somewhat higher toxicity”. Also, in the data set on THP-1 cells, the “MTT % Viability” value is reported as 44%. Moreover, the “activity in NF-κB and ISRE assays (in words)” value in the data set with NF-κB and ISRE is recorded as “potent analogs”.
For the molecule `CCOC(=O)CN(c1cc(OC)c(Cl)cc1OC)S(=O)(=O)c1ccc(OCC)cc1` [Compound 49, Ethyl N-(4-chloro-2,5-dimethoxyphenyl)-N-((4-ethoxyphenyl)sulfonyl)glycinate], the activity at 5 µM was 202% in the data set with NF-κB and 184% in the data set on ISRE. For the same molecule, the “MTT % Viability” value in the data set on THP-1 cells was 81.4%. In addition, in the data set on NF-κB and ISRE, the “activity in NF-κB and ISRE assays (in words)” value is “retained dual NF-κB and ISRE activities”.

For the origin of these results see patent publication US20220305121A1, “N-ARYL SULFONAMIDE DERIVATIVES AS VACCINE ADJUVANT” (The Regents of the University of California, priority 2019, published 2022).
